From patent US7098186B2, “Depsipeptide compound” (Astellas Pharma INC, priority 2002, dated 2006)

Assays:
Assay type in all cases: cell-based
[1] = tested on: acetylated histone H3 in K562 cells; test: Effect on inducing histone acetylation against human cancer cells (Western blot, anti-acetylated histone H3); details: 0.3 to 30 nM, 24 hours, in comparison with the sample treated with solvent
Method: After inoculating K562 cells into a 35 mm dish at a density of 1.5×10^6 cell/dish, the solvent (DMSO) and various concentrations (0.3 to 30 nM) of the compound Q or R were added and cultured at 37° C. in a […] incubator for 24 hours. Extraction of the histone protein was performed by the following method. To the cell precipitate collected by centrifugation, TEN buffer (10 mM Tris HCl (pH 8.0), 1 mM EDTA, 1% NP-40, 1 tablet/10 mL Complete mini (Roche Co.)) was added, stood on the ice for 10 minutes, and the supernatant was collected by centrifugation. The supernatant was mixed well with an equal amount of 0.4 M sulfuric acid, and stood on ice for 1 hour. The supernatant portion was collected by centrifugation, mixed with 5 times amount of acetone and stood at −20° C. for 12 hours or more. The precipitate was collected by centrifugation, washed once with acetone, and then the precipitate was dried. The precipitate was dissolved in distilled water, which was made to be histone protein, the protein concentration was determined by the Bradford method. […] For the primary antibody, an anti-acetylated histone H3 antibody (UPSTATE biotechnology Co.), for the secondary antibody, an HRP labeled anti-rabbit antibody (Amersham Pharmacia Biotech Co.) were used, and luminescence was detected by ECL (Amersham Pharmacia Biotech Co.).

[2] = tested on: human leukemia K562 cells; test: Inhibition of cell proliferation against human cancer cells (Alamar Blue), K562; details: 72 hours culture
Method: (§1) Human colon cancer WiDr cells or human leukemia K562 cells were inoculated into a 96-well test plate at a density of 5×10^3 cell/well and cultured at 37° C. in a […] incubator. Eighteen hours after the inoculation, the solvent (DMSO) diluted with the medium and various concentrations of the compound Q or R were added, and followed by further culture at 37° C. in a […] incubator for 72 hours. After the culturing, the proliferation of cells was measured with Alamar Blue (BIOSOURCE Co.). The measurement values for the conditions in which 0.1% DMSO and cells had been added, and 0.1% DMSO had been added and cells had not been added were assigned to be 0% inhibition and 100% inhibition, respectively, and the proliferation inhibition rate for each concentration of the compounds was obtained, then the concentration of inhibiting proliferation by 50% (IC50 value) was calculated by logistic regression.

[3] = tested on: Human colon cancer WiDr cells; test: Inhibition of cell proliferation against human cancer cells (Alamar Blue), WiDr; details: 72 hours culture
Method: as §1

IC50 [2] | IC50 [3] | SMILES | bands of acetylated histone H3 (induction of histone acetylation) [1]
0.6 nM | 0.9 nM | CC1NC(=O)CC2/C=C/CCSSCC(NC1=O)C(=O)NC(C(C)C)C(O)CC(=O)O2 (stereo not drawn) [compound R] | significant and dose-dependent bands of acetylated histone H3 were detected
1.4 nM | 3 nM | CC1NC(=O)CC2/C=C/CCSSSCC(NC1=O)C(=O)NC(C(C)C)C(O)CC(=O)O2 (stereo not drawn) [compound Q] | significant and dose-dependent bands of acetylated histone H3 were detected
